# Measured values as given in patent US20220409629A1, “BENZODIAZEPINE DERIVATIVES FOR TREATING A RESPIRATORY SYNCYTIAL VIRUS (RSV) INFECTION” (priority 2019, published 2022).
# Columns and labels:
# [1] = Liver microsomal stability, human; format: in vitro ADME; details: pH 7.4; human liver microsomes, 0.5 mg/mL protein, 1 μM compound, NADPH; >80% remaining at 45 min denoted >140; read-out: Liver Microsomal Stability: t1/2 (min); human
# Outline: (§1)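 Pooled liver microsomes (0.5 mg/mL protein) in 0.1 M phosphate pH 7.4 with 1 μM compound (0.25% DMSO), started with 1 mM NADPH at 37° C; sampled 0-45 min, minus-NADPH control 45 min. LC-MS/MS depletion slope gave t1/2 and CLint.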
# [2] = Liver hepatocyte stability, rat; format: in vitro ADME; details: rat hepatocytes, 3 μM compound, 60 min, >80% remaining at 60 min denoted >186, read-out: Liver Hepatocyte Stability: t1/2 (min)
# Procedure: (§2) Cryopreserved pooled hepatocytes were purchased from a reputable commercial supplier and stored in liquid nitrogen prior to use. Williams E media supplemented with 2 mM L-glutamine and 25 mM HEPES and test compound (final substrate concentration 3 μM; final DMSO concentration 0.25%) are pre-incubated at 37° C. prior to the addition of a suspension of cryopreserved hepatocytes (final cell density 0.5×10^6 viable cells/mL in Williams E media supplemented with 2 mM L-glutamine and 25 mM HEPES) to initiate the reaction. The final incubation volume is 500 μL. Two control compounds were included with each species, alongside appropriate vehicle control. The reactions are stopped by transferring 50 μL of incubate to 100 μL acetonitrile containing internal standard at the appropriate time points. Samples were removed at 6 time points (0, 5, 15, 30, 45 and 60 min) over the course of a 60 min experiment. The termination plates are centrifuged at 2500 rpm at 4° C. for 30 min to precipitate the protein. Following protein precipitation, the sample supernatants were combined in cassettes of up to 4 compounds and analysed using generic LC-MS/MS conditions. From a plot of ln peak area ratio (compound peak area/internal standard peak area) against time, the gradient of the line is determined. Subsequently, half-life (t1/2) and intrinsic clearance (CLint) were calculated.
# [3] = Liver hepatocyte stability, human; format: in vitro ADME; details: human hepatocytes, 3 μM compound, 60 min, >80% remaining at 60 min denoted >186, read-out: Liver Hepatocyte Stability: t1/2 (min)
# Procedure: as §2
# [4] = Rat pharmacokinetics in vivo; details: male Sprague Dawley rats; for AUC(0-t): read-out: PO AUClast
# Procedure: The pharmacokinetics of compounds were studied in vivo in rats at doses of 1 mg/kg (IV) and 10 mg/kg (PO).
# Male rats (Sprague Dawley) surgically prepared with a jugular vein cannula were treated with experimental compounds via intravenous administration (IV; n=3; 1 mg/kg) or oral administration (PO; n=3; 10 mg/kg). Compounds were formulated as a solution in 40:60 dimethylacetamide:saline (IV administration), a suspension in 1% methyl cellulose (viscosity: 15 cP), 0.1% Tween80 in water (PO administration: Example 3), a solution in 10% DMSO/10% Cremaphor/80% water (PO administration: Examples 4, 11, 21, 23, 25, 26, 32) or a solution in 10% DMSO/20% Cremaphor/70% water (PO administration: Examples 19, 20, 22, 24, 30). […] Serial blood samples were collected via the cannula at 0.02, 0.08, 0.25, 0.5, 1, 2, 4, 6, 8 and 24 h post IV dosing of compound, and at 0.08, 0.25, 0.5, 1, 2, 4, 6, 8 and 24 h post oral dosing of compound, and plasma was prepared by centrifugation and stored immediately at −80° C. Samples were subsequently thawed, prepared for analysis by protein precipitation with acetonitrile, and analysed by tandem LCMS using electrospray ionisation using a matrix-matched calibration curve. PK parameters were calculated from the resulting data.
# [5] = Liver microsomal stability, rat; format: in vitro ADME; details: pH 7.4; rat liver microsomes, 0.5 mg/mL protein, 1 μM compound, NADPH; >80% remaining at 45 min denoted >140; read-out: Liver Microsomal Stability: t1/2 (min); rat
# Outline: as §1
# Cell cytotoxicity CC50 = format: cell-based; details: human; mean of at least two experiments
# [6] = Dog pharmacokinetics in vivo; details: plasma, male Beagle dogs; for concentration at 8 h: read-out: C 8 h; for AUC(0-t): read-out: PO AUClast
# Procedure: The pharmacokinetics of compounds of the invention were studied in vivo in dogs.
# Male Beagle dogs were treated with experimental compounds via intravenous administration (n=2; 0.5 mg/kg) or oral administration (n=2; 3 mg/kg or 4 mg/kg). Compounds were formulated as a solution in 20% dimethylacetamide/80% (2-hydroxypropyl)-β-cyclodextrin (20% w/v) (IV administration) or a solution in 10% dimethylacetamide/90% (2-hydroxypropyl)-β-cyclodextrin (20% w/v) (PO administration). […] Serial blood samples were collected from the jugular vein at 0.03, 0.08, 0.25, 0.5, 1, 2, 4, 6, 8 and 24 h post IV dosing of compound, and at 0.08, 0.25, 0.5, 1, 2, 4, 6, 8 and 24 h post oral dosing of compound, and plasma was prepared by centrifugation and stored immediately at −80° C. Samples were subsequently thawed, prepared for analysis by protein precipitation with acetonitrile, and analysed by tandem LCMS using electrospray ionisation using a matrix-matched calibration curve. PK parameters were calculated from the resulting data.
# [7] = rat, in vivo, IV 1 mg/kg, PO 10 mg/kg
# [8] = rat, in vivo, IV 1 mg/kg, read-out: IV t½ (converted)
# [9] = rat, in vivo, PO 10 mg/kg, read-out: PO t½ (converted)
# [10] = rat, in vivo, doses 1 mg/kg (IV) and 10 mg/kg (PO)
# [11] = 8 h, doses 1 mg/kg (IV) and 10 mg/kg (PO)
# [12] = IV 0.5 mg/kg, read-out: IV t1/2 (converted)
# [13] = PO 4 mg/kg, read-out: PO t1/2 (converted)
Structure (SMILES),"Vd ([4]; rat, in vivo, IV 1 mg/kg)","clearance ([4]; rat, in vivo, IV 1 mg/kg)","bioavailability [4, 7]","half-life [4, 8]","AUC(0-t) ([4]; rat, in vivo, PO 10 mg/kg)","half-life [4, 9]","Cmax [4, 10]",half-life [1],half-life [2],half-life [3],"C 8 h [4, 11]",half-life [5],concentration at 8 h ([6]; Dose: IV/PO 0.5/4 mg/kg),Cmax ([6]; Dose: IV/PO 0.5/4 mg/kg),bioavailability ([6]; Dose: IV/PO 0.5/4 mg/kg),Vd ([6]; IV 0.5 mg/kg),clearance ([6]; IV 0.5 mg/kg),"half-life [6, 12]",AUC(0-t) ([6]; PO 4 mg/kg),CC50 (Cell cytotoxicity CC50),further results
"CCn1ncc(C(=O)N[C@H]2N=C(c3ccccc3)c3ccccc3NC2=O)c1-c1ccc(NC(C)C)nc1F [Example 3, 1-Ethyl-5-[2-fluoro-6-(propan-2-ylamino)pyridin-3-yl]-N-[(3S)-2-oxo-5-phenyl-1,3-dihydro-1,4-benzodiazepin-3-yl]pyrazole-4-carboxamide]",2.4 L/kg,0.798 L/h/kg,17.1%,2.2 h,2.07 µg·h/mL,4.6 h,0.199 µg/mL,–,–,–,–,–,–,–,–,–,–,–,–,–,"half-life at 1 µM [1]: 287 min; half-life at 3 µM [2]: 73.8 min; half-life at 3 µM [3]: 52.6 min; concentration at 8 h ([4]; rat, in vivo, 8 h, doses 1 mg/kg (IV) and 10 mg/kg (PO), read-out: C 8 h): 0.108 µg/mL; half-life at 1 µM [5]: 88.8 min; CC50 at 2 days (Cell cytotoxicity CC50): > 25 µM"
"CCn1ncc(C(=O)N[C@H]2N=C(c3ccccc3)c3ccccc3NC2=O)c1-c1ccc(NC2CC2)nc1F [Example 4, 1-Ethyl-5-[2-fluoro-6-(cyclopropylamino)pyridin-3-yl]-N-[(3S)-2-oxo-5-phenyl-1,3-dihydro-1,4-benzodiazepin-3-yl]pyrazole-4-carboxamide]",2 L/kg,1.36 L/h/kg,124%,1.3 h,9.02 µg·h/mL,2.2 h,1.34 µg/mL,52 min,47.3 min,53.5 min,0.47 µg/mL,68.5 min,0.0561 µg/mL,0.78 µg/mL,41.5%,0.79 L/kg,0.618 L/h/kg,1 h,2.68 µg·h/mL,> 25 µM,"half-life [6, 13]: 2.3 h"
"O=C(N[C@H]1N=C(c2ccccc2)c2cccc(F)c2NC1=O)c1cnn(C2CCOCC2)c1-c1ccc(NC2CC2)nc1F [Example 21, 5-[6-(Cyclopropylamino)-2-fluoropyridin-3-yl]-N-[(3S)-9-fluoro-2-oxo-5-phenyl-1,3-dihydro-1,4-benzodiazepin-3-yl]-1-(oxan-4-yl)pyrazole-4-carboxamide]",2.1 L/kg,1.12 L/h/kg,98.2%,1.7 h,8.19 µg·h/mL,3.2 h,1.59 µg/mL,170 min,284 min,> 186 min,0.385 µg/mL,87.6 min,–,–,–,1.3 L/kg,0.252 L/h/kg,7.6 h,–,> 25 µM,"concentration at 8 h ([6]; Dose: IV/PO 0.5/3 mg/kg): 0.146 µg/mL; Cmax ([6]; Dose: IV/PO 0.5/3 mg/kg): 0.5 µg/mL; bioavailability ([6]; Dose: IV/PO 0.5/3 mg/kg): 33.6%; AUC(0-t) ([6]; PO 3 mg/kg): 3.61 µg·h/mL; half-life ([6]; PO 3 mg/kg, read-out: PO t1/2 (converted)): 5.6 h"
"CC(C)Nc1ccc(-c2c(C(=O)N[C@H]3N=C(c4ccccc4)c4cccc(F)c4NC3=O)cnn2C2CCOCC2)c(F)n1 [Example 22, N-[(3S)-9-fluoro-2-oxo-5-phenyl-1,3-dihydro-1,4-benzodiazepin-3-yl]-5-[2-fluoro-6-(propan-2-ylamino)pyridin-3-yl]-1-(oxan-4-yl)pyrazole-4-carboxamide]",1.9 L/kg,0.6 L/h/kg,88.3%,2.4 h,14.9 µg·h/mL,2.6 h,1.44 µg/mL,287 min,120 min,207 min,0.734 µg/mL,> 140 min,0.281 µg/mL,0.692 µg/mL,40.1%,1.4 L/kg,0.246 L/h/kg,4.9 h,6.05 µg·h/mL,> 25 µM,"half-life [6, 13]: 6.8 h"
"CCNc1ccc(-c2c(C(=O)N[C@H]3N=C(c4ccccc4)c4cccc(F)c4NC3=O)cnn2C2CCOCC2)c(F)n1 [Example 24, 5-[6-(Ethylamino)-2-fluoropyridin-3-yl]-N-[(3S)-9-fluoro-2-oxo-5-phenyl-1,3-dihydro-1,4-benzodiazepin-3-yl]-1-(oxan-4-yl)pyrazole-4-carboxamide]",1.4 L/kg,0.9 L/h/kg,50%,1.3 h,5.54 µg·h/mL,3.4 h,0.791 µg/mL,> 140 min,228 min,162 min,0.182 µg/mL,484 min,0.067 µg/mL,0.45 µg/mL,22.7%,0.86 L/kg,0.39 L/h/kg,1.5 h,2.3 µg·h/mL,> 25 µM,"half-life [6, 13]: 2.4 h"
